Test results published in the supplement of paper PMC11451515.

Test system: P12-Ichikawa
Experiment: cell viability relative to DMSO control; higher = less cytotoxic
Details: 48 h
Method in brief: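 Leukemia cells (NOMO1 or SEM, 500 cells/well; P12-Ichikawa, 1000 cells/well) were seeded in 5 μl in 1536-well plates after at least four passages of adaptation to each medium. They received library compounds in DMSO by pin dosing, 11 threefold points from 47 μM to 0.79 nM. Luminescence with CellTiter-Glo One was read after 48 h at 37°C. Viability is stated per plate relative to DMSO wells, with cell-free wells as background.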

[1] = HPLM + 10% dialyzed FBS, 0.000781 µM
[2] = HPLM + 10% dialyzed FBS, 0.00234 µM
[3] = HPLM + 10% dialyzed FBS, 0.00702 µM
[4] = HPLM + 10% dialyzed FBS, 0.0211 µM
[5] = HPLM + 10% dialyzed FBS, 0.0632 µM
[6] = HPLM + 10% dialyzed FBS, 0.19 µM
[7] = HPLM + 10% dialyzed FBS, 0.569 µM
[8] = HPLM + 10% dialyzed FBS, 1.71 µM
[9] = HPLM + 10% dialyzed FBS, 5.12 µM
[10] = HPLM + 10% dialyzed FBS, 15.4 µM
[11] = HPLM + 10% dialyzed FBS, 46.1 µM
[12] = RPMI 5 mM glucose + 10% FBS, 0.000781 µM
[13] = RPMI 5 mM glucose + 10% FBS, 0.00234 µM
[14] = RPMI 5 mM glucose + 10% FBS, 0.00702 µM
[15] = RPMI 5 mM glucose + 10% FBS, 0.0211 µM
[16] = RPMI 5 mM glucose + 10% FBS, 0.0632 µM
[17] = RPMI 5 mM glucose + 10% FBS, 0.19 µM
[18] = RPMI 5 mM glucose + 10% FBS, 0.569 µM
[19] = RPMI 5 mM glucose + 10% FBS, 1.71 µM
[20] = RPMI 5 mM glucose + 10% FBS, 5.12 µM
[21] = RPMI 5 mM glucose + 10% FBS, 15.4 µM
[22] = RPMI 5 mM glucose + 10% FBS, 46.1 µM
[23] = RPMI 5 mM glucose + 10% dialyzed FBS, 0.000781 µM
[24] = RPMI 5 mM glucose + 10% dialyzed FBS, 0.00234 µM
[25] = RPMI 5 mM glucose + 10% dialyzed FBS, 0.00702 µM
[26] = RPMI 5 mM glucose + 10% dialyzed FBS, 0.0211 µM
[27] = RPMI 5 mM glucose + 10% dialyzed FBS, 0.0632 µM
[28] = RPMI 5 mM glucose + 10% dialyzed FBS, 0.19 µM
[29] = RPMI 5 mM glucose + 10% dialyzed FBS, 0.569 µM
[30] = RPMI 5 mM glucose + 10% dialyzed FBS, 1.71 µM
[31] = RPMI 5 mM glucose + 10% dialyzed FBS, 5.12 µM
[32] = RPMI 5 mM glucose + 10% dialyzed FBS, 15.4 µM
[33] = RPMI 5 mM glucose + 10% dialyzed FBS, 46.1 µM

Compound | cell viability [1] | cell viability [2] | cell viability [3] | cell viability [4] | cell viability [5] | cell viability [6] | cell viability [7] | cell viability [8] | cell viability [9] | cell viability [10] | cell viability [11] | cell viability [12] | cell viability [13] | cell viability [14] | cell viability [15] | cell viability [16] | cell viability [17] | cell viability [18] | cell viability [19] | cell viability [20] | cell viability [21] | cell viability [22] | cell viability [23] | cell viability [24] | cell viability [25] | cell viability [26] | cell viability [27] | cell viability [28] | cell viability [29] | cell viability [30] | cell viability [31] | cell viability [32] | cell viability [33]
Oc1ccc(-c2ccc(-c3cc(Nc4cccc(CNC5CC5)c4)[nH]n3)cc2)c(O)c1 | 104% | 103% | 112% | 104% | 96.1% | 112% | 104% | 92.3% | 32.2% | 38% | 64.1% | 99.4% | 98.1% | 115% | 114% | 98.5% | 116% | 108% | 89% | 23.2% | 13.5% | 23.4% | 101% | 114% | 105% | 125% | 111% | 112% | 104% | 101% | 58.8% | 32.9% | 43.2%
Cc1ccc([S+](=O)([O-])Nc2cc(Cl)ccc2C(=O)Nc2nc(-c3ccccc3)cs2)cc1 |  |  |  |  |  |  |  |  |  |  |  |  |  |  |  |  |  |  |  |  |  |  | 124% | 130% | 117% | 123% | 128% | 119% | 117% | 116% | 114% | 101% | 26.6%
N#Cc1ccnc(N2C(=O)CC[C@H]2C(=O)N(c2cncc(F)c2)[C@H](C(=O)NC2CC(F)(F)C2)c2ccccc2Cl)c1 | 91.1% | 95.2% | 93.7% | 95.4% | 94.9% | 97% | 74.8% | 48.3% | 10.1% | 10.1% | 15.5% | 88% | 90.2% | 95.4% | 93.1% | 90.5% | 90.5% | 80.5% | 71.5% | 25.4% | 16.2% | 7.62% | 95.5% | 89.9% | 88.5% | 96.7% | 97.5% | 95.6% | 85% | 83.7% | 35.6% | 26.2% | 18.8%
CCOC(=O)N[C@@H]1CC[C@@H]2[C@@H](C1)C[C@H]1C(=O)O[C@H](C)[C@H]1[C@H]2/C=C/c1ccc(-c2cccc(F)c2)cn1 | 113% | 114% | 115% | 114% | 114% | 117% | 113% | 120% | 120% | 115% | 98.5% |  |  |  |  |  |  |  |  |  |  |  | 114% | 116% | 124% | 122% | 123% | 120% | 123% | 122% | 120% | 119% | 68.4%
CC(C)(C)OC(=O)Nc1ccc(-c2cc(C(=O)NCCCCCCC(=O)NO)no2)cc1 | 90.9% | 94.6% | 92.3% | 95.2% | 93.3% | 92.5% | 92.8% | 45.8% | 40.7% | 4.57% | 4.67% | 87.8% | 85.6% | 87% | 88.1% | 80.1% | 80% | 84.8% | 32.5% | 35.3% | 3.1% | 3.16% | 88.4% | 90.5% | 83.7% | 86.6% | 82.6% | 85.4% | 83% | 9.73% | 7.46% | 3.76% | 3.52%
Cc1nc(N)ncc1-c1nc(N2CCOCC2)c2sc(C(C)(C)O)cc2n1 | 125% | 122% | 119% | 113% | 83% | 10.9% | 7.79% | 5.43% | 4.61% | 4.97% | 4.1% | 116% | 122% | 114% | 120% | 116% | 121% | 18.5% | 7.92% | 6.16% | 5.72% | 5.39% | 124% | 118% | 125% | 120% | 122% | 118% | 13.2% | 8.68% | 7.11% | 6.92% | 5.85%
CN(C)[C@@H](CCOc1cccc2ccccc12)c1ccccc1 | 112% | 111% | 113% | 115% | 115% | 112% | 109% | 104% | 101% | 104% | 88.5% | 116% | 118% | 131% | 122% | 113% | 116% | 115% | 101% | 92.2% | 110% | 73.1% | 111% | 102% | 114% | 110% | 115% | 105% | 111% | 108% | 98.2% | 106% | 67.1%
COc1cc2ncnc(Nc3cccc(Cl)c3)c2cc1OC | 112% | 107% | 97.3% | 99.6% | 89.2% | 73% | 68.3% | 44.8% | 46.1% | 45.4% | 3.51% | 97.7% | 99.1% | 98.5% | 107% | 87.9% | 66.8% | 69.1% | 32.7% | 25.1% | 22.9% | 19% | 111% | 102% | 109% | 106% | 90.8% | 72.1% | 69.4% | 32% | 25.1% | 23% | 15.7%
CC(C)(O)C(=O)Nc1ccc([N+](=O)[O-])c(C(F)(F)F)c1 | 103% | 109% | 124% | 119% | 118% | 123% | 119% | 119% | 85.6% | 24% | 11.6% | 95.7% | 108% | 115% | 115% | 122% | 113% | 119% | 125% | 87% | 29.5% | 13.8% | 94.1% | 127% | 116% | 121% | 125% | 130% | 139% | 136% | 127% | 74.8% | 18.1%
Cc1c(C(=O)c2cccc3ccccc23)c2cccc3c2n1[C@H](CN1CCOCC1)CO3 | 98.5% | 93.4% | 93.5% | 97% | 89.5% | 90.2% | 91.4% | 91.9% | 80.8% | 82% | 26.2% | 83.1% | 76.7% | 81.9% | 78.4% | 87.8% | 77.5% | 80.1% | 84.5% | 76.3% | 74.7% | 12.9% | 86% | 92.5% | 85.4% | 82.6% | 94.2% | 86.9% | 90.2% | 84.6% | 81% | 78.6% | 28.5%
C[C@H](Cc1ccc(O)c(O)c1)[C@@H](C)Cc1ccc(O)c(O)c1 | 115% | 114% | 120% | 122% | 118% | 116% | 117% | 116% | 114% | 87.5% | 18.1% | 125% | 130% | 123% | 128% | 130% | 126% | 118% | 125% | 115% | 75.9% | 16.3% | 124% | 121% | 119% | 118% | 124% | 120% | 109% | 114% | 115% | 70.9% | 20.6%
COC(=O)Nc1nc2ccc([S+]([O-])c3ccccc3)cc2[nH]1 (stereo not drawn) | 109% | 119% | 111% | 114% | 111% | 116% | 122% | 119% | 95.5% | 55.5% | 86% | 100% | 115% | 103% | 119% | 118% | 120% | 115% | 135% | 110% | 74.4% | 92.4% | 118% | 120% | 117% | 118% | 124% | 118% | 128% | 122% | 117% | 95% | 97.4%
O=[S+]([O-])(NCCNC/C=C/c1ccc(Br)cc1)c1cccc2cnccc12 | 108% | 110% | 102% | 105% | 107% | 107% | 106% | 100% | 97% | 95.3% | 95.8% | 99.1% | 108% | 96.4% | 89% | 97.6% | 108% | 102% | 99.2% | 96.6% | 81.5% | 72% | 95.9% | 95.6% | 103% | 96.2% | 99.6% | 101% | 102% | 103% | 95.8% | 77% | 77.8%
NC\1=N\C(=O)N(\C=C1F)[C@H]2C[C@H](O)[C@@H](CO)O2 | 118% | 127% | 104% | 101% | 90.6% | 65.2% | 43.7% | 45.4% | 37% | 27.9% | 36.9% |  |  |  |  |  |  |  |  |  |  |  |  |  |  |  |  |  |  |  |  |  | 
Cc1cnc(Nc2ccc(N3CCN(C)CC3)cc2)nc1Nc1cccc([S+](=O)([O-])NC(C)(C)C)c1 | 133% | 104% | 109% | 121% | 118% | 109% | 103% | 90.8% | 88.7% | 10.6% | 2.36% | 112% | 120% | 119% | 120% | 124% | 111% | 117% | 91.3% | 80.2% | 16.2% | 7.55% | 108% | 115% | 114% | 113% | 106% | 107% | 102% | 92.7% | 76.6% | 48.4% | 4.62%
Oc1c(Cl)cc(Cl)c2cccnc12 | 107% | 112% | 109% | 100% | 105% | 107% | 112% | 103% | 109% | 97.4% | 70.6% | 100% | 95.4% | 109% | 107% | 108% | 102% | 101% | 101% | 96.2% | 80.8% | 30.5% | 99.1% | 99.4% | 110% | 95.2% | 102% | 101% | 103% | 99.1% | 96.8% | 85.5% | 21.8%
